Results published in EP3339444A1, “METHOD FOR OBTAINING A GL[…] AN INCREASED PERCENTAGE OF AF[…]” (Mabxience Research, S.L., priority 2016, dated 2018).

Legend:
[1] = tested on: CHO cell line producing adalimumab; experiment: Viable cell density (VCD) and viability in fed-batch culture with arginine; assay type: cell-based, Chinese Hamster
Experimental: The cells were cultured in AMBR vessels in the cell culture media described above. The vessels were maintained at 36.5 °C, pH 7±0.2, 20% of DO and at 900 rpm of stirrer. They were seeded at 0.5 x 10^6 cells per ml in a volume of 11 mL. On days 0, 3, and 5, at least 2% of initial culture volume of feed medium and 0.2% of initial culture volume of cystine/tyrosine were added. Day 0 is the day in which the cultures were started, day 1 is the first day thereafter, day 2 is the second day thereafter, etc. Protein titer was determined on days 10, 12, 14 and 16.
The cells were cultured in 1 L scale bioreactor in the above described cell culture media. The cultures were maintained at 36.5 °C, pH 7±0.2, 20% of oxygen dissolved (DO) and at 200 rpm of stirrer. They were seeded at 0.5 x 10^6 cells per ml in a volume of 600mL. On days 0, 3, and 5, at least 2% of initial culture volume of feed medium and 0.2% of initial culture volume of cystine/tyrosine were added.
(§1) A transduced CHO cell line was used with three different culture media (Media 1, 2 and 3) in a fed-batch process with 5 different feeds (Feed 1,2,3,4 and 5) and at two culture scales, AMBR system (15 mL culture) and 1 L scale Bioreactors. Feeding strategy was based on maintaining glucose concentration between 3-4 g/L through the addition of different amount of feeding depending on glucose concentration measurement in culture media.
(§2) Process parameters & Conditions AMBR: T: 36.5 °C; Stirrer: 900 rpm; DO: 20%; pH:6.8-7.20; initial density: 0.5x10^6 cells/mL. Process parameters & Conditions 1 L: T: 36.5 °C; Stirrer: 200 rpm/240 rpm (day 7); DO: 20%; pH: 6.8-7.20; initial density: 0.5x10^6 cells/mL.

[2] = tested on: CHO cell line producing adalimumab; experiment: Glycosylation profile (N-linked glycans released, labeled, chromatography) with arginine in culture; assay type: cell-based, Chinese Hamster
Experimental: as §1, §2
N-linked glycans were released from IgG samples by overnight incubation with N-glycosidase. The released glycans were labeled with a specific fluorophore. The labeled glycans were bound and separate by a chromatography. N-linked glycan structures were assigned to peaks based on comparison to reference structures. The amount of each structure is expressed as the percentage of total peak area. G0, G1, and G2 refer to complex, neutral, biantennary structures with 0, 1, or 2 terminal galactose residues, while G0F, G1 F, are G2F, are the corresponding core fucosylated structures.
Afucosylation: [GO-GlcNac + G0 + G1 + G2] / [GO-GlcNac + G0 + G0F + G1 + G1 F + G2 + G2F]

[3] = Media_1 Feed_2, 2 and 4 g/L arginine, AMBR

N=C(N)NCCC[C@H](N)C(=O)O [Arg, arginine] was tested, and the “reduction of VCD (maximum)” value [1, 3] was “about 2 million cells”, the viability [1, 3] was “do nott affect viability” and the “cell growth and viability” value ([1]; Media_1 Feed_2, 8 g/L arginine, AMBR) was “important reduction on cell growth affecting viability”. The maximum cell density ([1]; Media_2 Feed_1, 0-4 g/L arginine, AMBR) was “does not reduce the maximum cell density reached”, the maximum cell density ([1]; Media_2 Feed_1, 4 g/L arginine, 1 L bioreactor) was “a delay and a decrease in the obtained maximum cell density” and the “maximum VCD” value ([1]; Media_2 Feed_2, 2 g/L arginine, AMBR) was “does not affect maximum VCD”. For the same compound, the cell growth ([1]; Media_2 Feed_2, 8 g/L arginine, AMBR) was “important reduction on cell growth”, the cell growth ([1]; Media_3 Feed_1, 2 to 4 g/L arginine, AMBR) was “reduces cell growth” and the cell density ([1]; Media_3 Feed_3, 4 g/L arginine in combination with ferric citrate, AMBR) was “does not have a negative effect in cell density”. The cell density ([1]; Media_3 Feed_4, 4 g/L arginine in combination with 1 mM 3-methyl butyrate, AMBR) was “does not have a negative effect in cell density”, the “increment in G0 forms” value ([2]; Media_2 Feed_1, 4 g/L arginine, day 16, 1 L bioreactor) was “higher than 50%” and the “increment in G1 forms” value ([2]; Media_3 Feed_3, 4 g/L arginine, day 14, AMBR) was “higher than 50%”. The “increment in G1 forms” value ([2]; Media_3 Feed_4, 4 g/L arginine, day 16, AMBR) was “higher than 50%”.
